This note sets out measurements from patent US6251893A, “Bicyclic piperidine and piperazine compounds having 5-HT6 receptor affinity” (NPS Allelix Corp., priority 1998, dated 2001).

The target in test [1] is T1, human 5HT6 receptor (Homo sapiens, UniProt P50406). Nature of the test: Binding affinity for the 5-HT6 receptor (3H-LSD displacement). Details: expressed in transfected cells. Particulars: 100 nM test compound; 3H-LSD (2 nM); 60 minute incubation at 37° C; read-out: percent inhibition of radioligand binding for the 5-HT6 receptor. As for the experimental part: Binding Affinity for the 5-HT6 Receptor
T1 sequence (P50406 whole entry): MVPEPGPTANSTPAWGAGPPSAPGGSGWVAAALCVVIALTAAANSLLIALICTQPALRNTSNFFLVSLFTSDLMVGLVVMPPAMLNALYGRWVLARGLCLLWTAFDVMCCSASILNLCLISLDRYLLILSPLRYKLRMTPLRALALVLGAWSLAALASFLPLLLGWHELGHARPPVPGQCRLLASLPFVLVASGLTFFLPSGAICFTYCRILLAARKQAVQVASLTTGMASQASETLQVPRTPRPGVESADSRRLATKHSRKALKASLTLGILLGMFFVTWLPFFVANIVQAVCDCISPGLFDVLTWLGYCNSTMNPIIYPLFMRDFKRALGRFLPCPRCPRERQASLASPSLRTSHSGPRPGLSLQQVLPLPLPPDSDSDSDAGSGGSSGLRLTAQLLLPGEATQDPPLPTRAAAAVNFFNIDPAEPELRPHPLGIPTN
The assay protocol generally entailed the incubation of membranes prepared from cells expressing the 5-HT6 receptor with ^3 H-LSD (2 nM). Increasing levels of the test compound were incubated with the radioligand and the membrane homogenates prepared from the recombinant cells. After a 60 minute incubation at 37° C., the incubation was terminated by vacuum filtration. The filters were washed with buffer and the filters were counted for radioactivity using liquid scintillation spectrometry. […] Concentrations ranging from 10^-11 M to 10^-5 M of the test compound were evaluated. […] Affinity for the 5-HT6 receptor is expressed as the amount (in percent) of binding of the radioligand that is inhibited in the presence of 100 nM of test compound. A greater percent inhibition indicates greater affinity for the 5-HT6 receptor.

In another test the target is 5-HT2A receptor (Homo sapiens, UniProt P28223). Nature of the test: Binding to 5-HT2A receptor (selectivity). Particulars: selectivity versus 5-HT6; read-out: percent inhibition for the 5-HT2A receptor. Set-up: dose or concentration left out as unconfirmed.
Sequence of 5-HT2A receptor (P28223 whole entry): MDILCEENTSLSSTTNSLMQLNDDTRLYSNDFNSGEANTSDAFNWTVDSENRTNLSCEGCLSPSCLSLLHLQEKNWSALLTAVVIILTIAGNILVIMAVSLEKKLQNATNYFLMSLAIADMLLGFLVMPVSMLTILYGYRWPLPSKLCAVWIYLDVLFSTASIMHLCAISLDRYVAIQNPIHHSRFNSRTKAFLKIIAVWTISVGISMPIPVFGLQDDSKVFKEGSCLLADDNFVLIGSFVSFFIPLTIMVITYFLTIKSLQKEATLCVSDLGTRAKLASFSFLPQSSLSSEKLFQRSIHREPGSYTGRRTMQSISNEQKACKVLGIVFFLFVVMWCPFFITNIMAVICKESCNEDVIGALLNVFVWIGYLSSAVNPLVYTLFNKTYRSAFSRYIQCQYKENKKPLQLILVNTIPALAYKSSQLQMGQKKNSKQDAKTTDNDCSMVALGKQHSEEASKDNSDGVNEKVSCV
For another test, the target named is T2, 5HT2C receptor (Homo sapiens, UniProt P28335).
T2 sequence (P28335 33-458): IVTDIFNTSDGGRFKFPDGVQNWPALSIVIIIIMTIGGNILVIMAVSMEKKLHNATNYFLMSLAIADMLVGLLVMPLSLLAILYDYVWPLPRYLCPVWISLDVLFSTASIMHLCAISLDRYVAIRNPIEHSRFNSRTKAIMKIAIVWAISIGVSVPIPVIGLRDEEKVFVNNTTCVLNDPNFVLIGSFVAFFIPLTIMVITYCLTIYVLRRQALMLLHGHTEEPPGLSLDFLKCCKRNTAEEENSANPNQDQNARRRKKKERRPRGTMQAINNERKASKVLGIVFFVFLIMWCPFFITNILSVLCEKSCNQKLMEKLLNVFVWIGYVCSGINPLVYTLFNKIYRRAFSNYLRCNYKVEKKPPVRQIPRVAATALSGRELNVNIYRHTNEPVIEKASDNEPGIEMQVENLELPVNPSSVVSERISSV
Nature of the test: Binding to 5HT2C receptor (selectivity). Conditions: selectivity versus 5-HT6; read-out: percent inhibition for the 5HT2C receptor.

Test [2] has as its target T1, human 5HT6 receptor. Nature of the test: Functional assay: reversal of serotonin-stimulated adenyl cyclase activity (cAMP) in HEK 293 cells stably expressing the human 5HT6 receptor. It is filed as cell-based. Details: cAMP functional assay in whole cells. Particulars: 100 nM and 10 μM test compound with serotonin. As for the experimental part: The 5HT6 receptor responds to serotonin and other agonists by increasing adenyl cyclase mediated production of cyclic AMP. Particular test compounds were assayed for their effect on adenyl cyclase activity using the procedure described below.
Compounds acting as antagonists at the 5HT6 receptor will antagonize the agonist effect of serotonin and thus, will block the serotonin-inducedincrease in adenyl cyclase activity.
HEK 293 cells stably expressing the human 5HT6 receptor were plated in 6 well plates in DMEM (Dulbecco's Modified Eagle Medium)/F12 (Nutrient Mixture F12-Ham) media with 10% FCS (fetal calf serum) and G418 (Geneticen Disulfate, 500 ug/ml), and incubated at 37° C. in a CO2 incubator. The cells were allowed to grow to about 70% confluence before use in the assay.
The culture medium of each well was removed, and the wells were washed once with serum free media. Then 2 ml of SFM+IBMX medium (SFM with 0.5 mM IBMX, 3-isobutyl-1-methylxanthine, 0.1% ascorbic acid and 10 mM pargyline) was added to each well and the wells were incubated at 37° C. for 10 min. Following incubation, the SFM+IBMX medium was removed from each well and fresh SFM+IBMX media was added to the wells separately with one of a) serotonin (1 μM final concentration); b) test compound (100 nM and 10 μM, to test for agonist activity); and c) test compound (100 nM and 10 μM) along with serotonin ([…], to test for antagonist activity). Basal adenyl cyclase activity was determined from wells with only SFM+IBMX media added.
The cells were then incubated at 37° C. for 30 minutes in a CO2 incubator. Following incubation, the media were removed from each well. The wells were washed once with 1 ml of PBS (phosphate buffered saline). Each well was then treated with 1 mL cold 95% ethanol:5 mM EDTA (2:1) at 4° C. for 1 hour. The cells from each well were then scraped and transferred into individual Eppendorf tubes. The tubes were centrifuged for 5 minutes at 4° C., and the supernatants were transferred to new Eppendorf tubes and stored at 4° C. The pellets were discarded and the supernatants were stored at 4° C. until assayed for cAMP concentration. cAMP content for each extract was determined in duplicate by EIA (enzyme-immunoassay) using the Amersham Biotrak cAMP EIA kit (Amersham RPN 225). Final results were expressed as % basal response for agonists and % reversal of serotonin response for antagonists.
The total stimulation of adenyl cyclase by serotonin (So) was determined as the difference in concentration of cAMP in the serotonin-treated cells (Cd) and the basal-treated cells (Cf).
The net stimulation (S) of basal adenyl cyclase by an agonist test compound was determined as the difference in cAMP concentration in the drug-treatedcell (C) and the basal-treated cells (Cf).
The net stimulation (Ss) of basal adenyl cyclase by serotonin in the presence of an antagonist test compound was determined as the difference in cAMP concentration in the serontonin-drug-treated cells (Cs) and the basal-treated cells (Cf).
The ability of the antagonist test compound to reverse the serotonin stimuation of adenyl cyclase activity (% reversal, % R) was determined by the formula: […]

Another test has as its target 5-HT7 receptor (Homo sapiens, UniProt P34969). As to the kind of experiment: Binding to 5-HT7 receptor (selectivity). Set-up: dose or concentration left out as unconfirmed. Particulars: selectivity versus 5-HT6; read-out: percent inhibition for the 5-HT7 receptor.

One may read the inhibition as the relative decrease from the control value, in per cent.

Sequence of 5-HT7 receptor (P34969 whole entry): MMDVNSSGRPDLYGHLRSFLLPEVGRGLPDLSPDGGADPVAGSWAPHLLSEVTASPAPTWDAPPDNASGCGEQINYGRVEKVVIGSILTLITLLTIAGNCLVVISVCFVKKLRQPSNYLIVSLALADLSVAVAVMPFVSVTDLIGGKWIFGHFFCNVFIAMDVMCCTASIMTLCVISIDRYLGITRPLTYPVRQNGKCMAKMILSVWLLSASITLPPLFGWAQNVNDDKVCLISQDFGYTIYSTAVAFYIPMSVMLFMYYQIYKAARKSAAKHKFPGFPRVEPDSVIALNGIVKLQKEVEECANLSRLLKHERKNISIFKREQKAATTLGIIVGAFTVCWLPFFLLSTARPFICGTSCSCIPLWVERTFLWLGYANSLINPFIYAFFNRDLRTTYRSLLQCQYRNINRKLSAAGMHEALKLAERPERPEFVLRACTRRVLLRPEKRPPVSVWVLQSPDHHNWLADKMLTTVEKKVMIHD

For `O=S(=O)(c1cccc2ccccc12)n1cc(C2=CCN3CCCC3C2)c2cc(F)ccc21` (racemic) [Example 6y, 5-Fluoro-3-[(8a-R,S)-1,2,3,5,8,8a-hexahydro-7-indolizinyl]-1-(1-naphthalenesulfonyl)indole], the inhibition at 0.1 µM at human 5HT6 receptor [1] was more than 80%; at 5HT2C receptor, less than 20%. Also, the inhibition at 5-HT2A receptor and at 5-HT7 receptor was less than 20% in each case. For the same compound, the “reversal of serotonin stimulation of adenyl cyclase (5-HT6 receptor antagonism)” value (“reversal” for short) at human 5HT6 receptor [2] was “able to reverse the serotonin stimulation of adenyl cyclase”.

Take `O=S(=O)(c1ccccc1)n1cc(C2CCN3CCCC3C2)c2cc(F)ccc21` (single isomer, unassigned; isomer ii) [Example 10d, 5-Fluoro-3-[(7R or 7S)(8a-R,S)-octahydrohydro-7-indolizinyl]-1-phenylsulfonylindole, Isomer II]: on human 5HT6 receptor [2], the “reversal” value is recorded as “able to reverse the serotonin stimulation of adenyl cyclase”.

Turning to `O=S(=O)(c1cccc2ccccc12)n1cc(C2CCN3CCCC3C2)c2cc(F)ccc21` (single isomer, unassigned; isomer i) [Example 10e, 5-Fluoro-3-[(7R or 7S)(8a-R,S)-octahydrohydro-7-indolizinyl]-1-(1-napthalenesulfonyl)indole, Isomer I], the inhibition at 0.1 µM on human 5HT6 receptor [1] was more than 80%. Further, the “reversal” value at human 5HT6 receptor [2] is “able to reverse the serotonin stimulation of adenyl cyclase”.

For `O=S(=O)(c1ccccc1)n1cc(C2CCN3CCCC3C2)c2cc(F)ccc21` (single isomer, unassigned; isomer i) [Example 10c, 5-Fluoro-3-[(7R or 7S)(8a-R,S)-octahydrohydro-7-indolizinyl]-1-phenylsulfonylindole, Isomer I], the inhibition at 0.1 µM at human 5HT6 receptor [1] is more than 80%. Besides, the “reversal” value on human 5HT6 receptor [2] is listed as “able to reverse the serotonin stimulation of adenyl cyclase”.

With `O=S(=O)(c1cccc2ccccc12)n1cc(N2CCN3CCCC3C2)c2ccccc21` (racemic) [Example 6b, 3-[(6-R,S)-1,4-Diaza[4.3. 0]bicyclonon-4-yl]-1-(1-naphthalenesulfonyl)indole], the inhibition at 0.1 µM was more than 80% at human 5HT6 receptor [1] and less than 20% on 5HT2C receptor. Further, the inhibition on 5-HT2A receptor and at 5-HT7 receptor was less than 20% throughout. For the same compound, the “reversal” value at human 5HT6 receptor [2] is “able to reverse the serotonin stimulation of adenyl cyclase”.

For `O=S(=O)(c1ccc2ccccc2c1)n1cc(C2CCN3CCCC3C2)c2cc(F)ccc21` (single isomer, unassigned; isomer i) [Example 10a, 5-Fluoro-3-[(7R or 7S)(8a-R,S)-octahydrohydro-7-indolizinyl]-1-(2-naphthalenesulfonyl)indole,Isomer I], on human 5HT6 receptor [1], the inhibition at 0.1 µM was more than 80%. Further, on human 5HT6 receptor [2], the “reversal” value was “able to reverse the serotonin stimulation of adenyl cyclase”.

Take `O=S(=O)(c1ccc2ccccc2c1)n1cc(C2CCN3CCCC3C2)c2cc(F)ccc21` (single isomer, unassigned; isomer ii) [Example 10b, 5-Fluoro-3-[(7R or 7S)(8a-R,S)-octahydrohydro-7-indolizinyl]-1-(2-naphthalenesulfonyl)indole, Isomer II]: the inhibition on 5-HT2A receptor and on 5-HT7 receptor was less than 20% throughout. In addition, the inhibition at 0.1 µM on 5HT2C receptor was less than 20%. Besides, the “reversal” value at human 5HT6 receptor [2] is listed as “able to reverse the serotonin stimulation of adenyl cyclase”.

With `O=S(=O)(c1ccccc1)n1cc(N2CCN3CCCC3C2)c2ccccc21` (racemic) [Example 6j, 3-[(6-R,S)-1,4-Diaza[4.3.0]bicyclonon-4-yl]-1-(phenylsulfonyl)indole], the inhibition at 0.1 µM on human 5HT6 receptor [1] was more than 80%; at 5HT2C receptor, less than 20%. Further, the inhibition on 5-HT2A receptor and on 5-HT7 receptor was less than 20% in each case. In addition, the “reversal” value on human 5HT6 receptor [2] is “able to reverse the serotonin stimulation of adenyl cyclase”.

Turning to `O=S(=O)(c1ccccc1)n1cc(C2=CCN3CCCC3C2)c2cc(F)ccc21` (racemic) [Example 6x, 5-Fluoro-3-[(8a-R,S)-1,2,3,5,8,8a-hexahydro-7-indolizinyl]-1-phenylsulfonylindole], the inhibition at 0.1 µM is more than 80% at human 5HT6 receptor [1] and less than 20% on 5HT2C receptor. The inhibition on 5-HT2A receptor and at 5-HT7 receptor was less than 20% throughout. Further, on human 5HT6 receptor [2], the “reversal” value is “able to reverse the serotonin stimulation of adenyl cyclase”.

`O=S(=O)(c1cccc2ccccc12)n1cc(C2CCN3CCCC3C2)c2cc(F)ccc21` (single isomer, unassigned; isomer ii) [Example 10f, 5-Fluoro-3-[(7R or 7S)(8a-R,S)-octahydrohydro-7-indolizinyl]-1-(1-naphthalenesulfonyl)indole,Isomer II]: the inhibition at 5-HT2A receptor and at 5-HT7 receptor was less than 20% in each case. Further, on 5HT2C receptor, the inhibition at 0.1 µM is less than 20%. Besides, the “reversal” value on human 5HT6 receptor [2] was “able to reverse the serotonin stimulation of adenyl cyclase”.
